Data on 10 compounds can be found in ChEMBL document CHEMBL1201862, “PubChem BioAssay data set” (2004).

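Dose response: 5 concentrations. Exposure: 48 h. Format: 96-well plates. Endpoint: linear interpolation; highest concentration if not reached. GI50: concentration for 50% inhibition of growth.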 Active and inactive are the calls of the source. Rule as the data show it: active = GI50 up to about 1.1 µM and inactive = higher. Bounds are passed on as bounds.

Common to all, as to test: NCI-60 cell line screen, 48 h
Assay [1] deals with DU-145.
In assay [2] the test system is EKVX.
The subject of assay [3] is HCC 2998.
Assay [4] deals with HT-29.
Assay [5] relates to M14.
Assay [6] relates to MCF7.
Assay [7] concerns MDA-MB-435.
For assay [8], the system named is NCI-H226.
The subject of assay [9] is NCI-H23.
Assay [10] relates to NCI-H460.
The subject of assay [11] is OVCAR-3.
Assay [12] concerns OVCAR-5.
The test system of assay [13] is OVCAR-8.
Assay [14] concerns RPMI-8226.
The subject of assay [15] is SK-MEL-28.
Assay [16] has as its system SN12C.
Assay [17] relates to SNB-19.
For assay [18], the system named is SNB-75.
Assay [19] deals with SR.
The test system of assay [20] is UO-31.

Take `C(=C\c1ccco1)/c1cccc(/C=C/c2ccco2)n1`: the GI50 was > 50 µM (inactive) in assay [1]; > 50 µM (inactive) in assay [2]; > 50 µM (inactive) in assay [3]; > 50 µM (inactive) in assay [4]; > 50 µM (inactive) in assay [5]; 0.283 µM (active) in assay [6]. The GI50 in assay [7], in assay [8], in [9], in [10], in assay [11] and in assay [12] was > 50 µM (inactive) in each case. Moreover, the GI50 is > 50 µM (inactive) in assay [13]; > 50 µM (inactive) in assay [14]; > 50 µM (inactive) in assay [15]; > 50 µM (inactive) in [16]; > 50 µM (inactive) in assay [17]; 13.2 µM (inactive) in assay [18]. Besides, the values for the GI50 in [19] and in [20] were 33.6 µM (inactive) and > 50 µM (inactive), respectively.
Consider `COc1c2c(c3c(c1OC)c(=O)c1ccccc1n3C)OCO2`, for which the GI50 in assay [1] is > 100 µM (inactive); in assay [2] it was 45.2 µM (inactive); in [3], > 100 µM (inactive); in [4] it was > 100 µM (inactive); in assay [5], > 100 µM (inactive); in assay [6], > 100 µM (inactive). Moreover, the GI50 in assay [7] is > 100 µM (inactive); in [8] it was > 100 µM (inactive); in assay [9] it was > 100 µM (inactive); in assay [10], 36.1 µM (inactive); in assay [11], > 100 µM (inactive); in assay [12], > 100 µM (inactive). The GI50 in assay [13], in [14], in [15], in assay [16], in assay [17] and in [18] was > 100 µM (inactive) in each case. The GI50 in assay [19] and in assay [20] was > 100 µM (inactive) each time.
In the case of `COC(=O)c1c(OC(C)=O)ccc2c1c1c(OC(C)=O)c3ccccc3c(OC(C)=O)c1n2C`, the GI50 is 19.9 µM (inactive) in assay [1]; 10.1 µM (inactive) in assay [2]; 23.7 µM (inactive) in [3]; 38.4 µM (inactive) in assay [4]; 27.6 µM (inactive) in assay [5]; 28.7 µM (inactive) in assay [6]. In addition, the GI50 is 37.8 µM (inactive) in assay [7]; 47.1 µM (inactive) in assay [8]; 40.8 µM (inactive) in [9]; 26.4 µM (inactive) in assay [10]; 14.7 µM (inactive) in assay [11]; 38.1 µM (inactive) in [12]. Further, the GI50 is 22.6 µM (inactive) in [13]; 16.2 µM (inactive) in assay [14]; 53.7 µM (inactive) in assay [15]; 53.7 µM (inactive) in assay [16]; 39.4 µM (inactive) in assay [17]; 2.06 µM (inactive) in assay [18]. Besides, the GI50 in assay [19] was 14.5 µM (inactive); in assay [20], 25.1 µM (inactive).
Take `N#Cc1c(O)c(C=O)c(=O)n2c1[nH]c1ccccc12`: the GI50 in assay [1] is > 100 µM (inactive); in assay [2], > 100 µM (inactive); in assay [3], > 100 µM (inactive); in assay [4], > 100 µM (inactive); in [5], > 100 µM (inactive); in assay [6], 44.3 µM (inactive). Further, the GI50 in [7], in assay [8], in assay [9], in [10], in assay [11] and in [12] was > 100 µM (inactive) each time. Moreover, the GI50 in [13], in assay [14], in [15], in assay [16], in assay [17] and in assay [18] was > 100 µM (inactive) each time. The GI50 in [19] was 61.4 µM (inactive); in assay [20], > 100 µM (inactive).
As for `C#CCN(Cc1ccc2nc(OC)c(OC)nc2c1)c1cc(OC)c(OC)c(OC)c1`, the GI50 in assay [1] is 27.6 µM (inactive); in assay [2] it was 14.8 µM (inactive); in [3] it was 35.1 µM (inactive); in assay [4], 21.8 µM (inactive); in assay [5], 22.1 µM (inactive); in [6], 11.9 µM (inactive). Besides, the GI50 was 6.59 µM (inactive) in assay [7]; 15.7 µM (inactive) in assay [8]; 8.36 µM (inactive) in assay [9]; 20 µM (inactive) in assay [10]; 37.8 µM (inactive) in assay [11]; 40.2 µM (inactive) in assay [12]. Further, the GI50 in assay [13] is 20.7 µM (inactive); in assay [14] it was 5.6 µM (inactive); in [15] it was 40.9 µM (inactive); in assay [16], 18.2 µM (inactive); in [17], 26.6 µM (inactive); in [18], 33.7 µM (inactive). The GI50 is 26.5 µM (inactive) in [19] and 22.1 µM (inactive) in assay [20].
Consider `O=C1/C(=C/c2cccnc2)C(n2cccc2)c2c(Br)sc(Br)c21` (stereo not given), for which the GI50 in [1] is 1.94 µM (inactive); in assay [2], 2 µM (inactive); in assay [3] it was 0.916 µM (active); in [4] it was 2.79 µM (inactive); in [5], 2.15 µM (inactive); in assay [6], 1.8 µM (inactive). Besides, the GI50 in assay [7] was 1.73 µM (inactive); in [8], 41.3 µM (inactive); in [9], 2.52 µM (inactive); in [10] it was 4.16 µM (inactive); in [11] it was 1.92 µM (inactive); in [12], 15 µM (inactive). The GI50 was 2.1 µM (inactive) in [13]; 1.95 µM (inactive) in assay [14]; 2.53 µM (inactive) in assay [15]; 3.94 µM (inactive) in assay [16]; 4.7 µM (inactive) in assay [17]; 2 µM (inactive) in [18]. The GI50 in [19] was 1.81 µM (inactive); in [20] it was 1.78 µM (inactive).
In the case of `CCN(CC)C(=O)N[C@@H](Cc1ccccc1)C(=O)NC`, the GI50 in assay [1], in assay [2], in assay [3], in [4], in [5] and in [6] was > 100 µM (inactive) in each case. In addition, the GI50 in [7], in assay [8], in [9], in assay [10], in assay [11] and in assay [12] was > 100 µM (inactive) each time. The GI50 in [13], in assay [14], in [15], in [16], in assay [17] and in assay [18] was > 100 µM (inactive) in each case. In addition, the GI50 in assay [19] and in assay [20] was > 100 µM (inactive) each time.
Regarding `CCOC(=O)/C(C(C)=O)=C(\OC(C)=O)c1ccncc1C(=O)O`, the GI50 in [1], in assay [2], in assay [3], in [4], in [5] and in assay [6] was > 100 µM (inactive) throughout. In addition, the GI50 in [7], in assay [8], in assay [9], in [10], in assay [11] and in [12] was > 100 µM (inactive) each time. The GI50 in assay [13], in assay [14], in assay [15], in assay [16], in assay [17] and in [18] was > 100 µM (inactive) throughout. Moreover, the GI50 in assay [19] and in assay [20] was > 100 µM (inactive) each time.
On to `CCOCC(=O)N[C@H]1CCc2cc(OC)c(OC)c(OC)c2-c2ccc(SC)c(=O)cc21`, for which the GI50 in assay [1] was < 0.01 µM (active); in assay [2], 7.94 µM (inactive); in assay [3] it was < 0.01 µM (active); in assay [4], < 0.01 µM (active); in [5] it was < 0.01 µM (active); in assay [6], < 0.01 µM (active). The GI50 in assay [7] was < 0.01 µM (active); in assay [8], 0.0465 µM (active); in [9] it was < 0.01 µM (active); in assay [10], < 0.01 µM (active); in [11], < 0.01 µM (active); in assay [12], 0.398 µM (active). Further, the GI50 in assay [13] was < 0.01 µM (active); in [14], < 0.01 µM (active); in assay [15], > 4.65 µM (inactive); in assay [16], < 0.01 µM (active); in assay [17], < 0.01 µM (active); in assay [18] it was 0.0102 µM (active). Besides, the values for the GI50 in [19] and in [20] were < 0.01 µM (active) and 0.0188 µM (active), respectively.
Take `CC(CC(=O)O)(CC(=O)O)c1ccccc1`: the GI50 in assay [1], in [2], in assay [3], in assay [4], in [5] and in assay [6] was > 100 µM (inactive) in each case. Further, the GI50 in assay [7], in [8], in [9], in assay [10], in assay [11] and in [12] was > 100 µM (inactive) in each case. Besides, the GI50 in assay [13], in assay [14], in assay [15], in [16], in assay [17] and in [18] was > 100 µM (inactive) each time. The GI50 in assay [19] and in assay [20] was > 100 µM (inactive) throughout.
